Results on 19 compounds are retold here after publication PMC12257397, “Scaffold Hopping Strategy toward New 4‑Aminoquinazolines Active Against Extracellular and Intracellular Mycobacterium tuberculosis” (ACS Medicinal Chemistry Letters, 2025).

In assay [1] the test system is M. tuberculosis QcrB T313I. To be noted: given in Figure 1A; cited from earlier work.
For assay [2], the system named is M. tuberculosis QcrB M342T. Particulars: given in Figure 1A; cited from earlier work.
For assay [3], the system named is M. tuberculosis LP-0106898-RM1 (QcrB T313I). Type of assay: cell-based, Mycobacterium tuberculosis.
The subject of assay [4] is M. tuberculosis LP-0497754-RM301, MmpL3 triple mutant (F255L, V646M, F644I). The format is cell-based, Mycobacterium tuberculosis.
The test system of assay [5] is M. tuberculosis qcrCAB (A178T). To be noted: given in Figure 1A; cited from earlier work.

pIC50: −log10 of the molar value. Converted amounts (≈) assume the structure as drawn.

In the case of `CCc1nc2ccc(C)cc2n1CCCNc1ccccc1` [2 (FABA)], the “MIC QcrB T313I” value in assay [1] was 8.7 µM (≈ 2.55 µg/mL). Moreover, in assay [2], the “MIC QcrB M342T” value was 4.1 µM (≈ 1.2 µg/mL).
Take `COc1ccc2nc(C)nc(NCCCc3ccccc3)c2c1` [18b]: the “MIC QcrBT313I” value in assay [3] came to 1.3 µM (≈ 0.4 µg/mL). Also, the “MIC MmpL3 (F255L, V646M, F644I)” value in assay [4] is given as 1.5 µM (≈ 0.461 µg/mL).
The like results for `Cc1nc(NCCCc2ccccc2)c2cc(Br)ccc2n1` [18c] were, in that order, less than 0.19 µM and less than 0.19 µM.
The like results for `Cc1nc(NCCc2ccc(OC(F)(F)F)cc2)c2cc(I)ccc2n1` [13d] were, in that order, 5.2 µM (≈ 2.46 µg/mL) and 8.3 µM (≈ 3.93 µg/mL).
The like results for `Cc1nc(NCCc2ccc3ccccc3c2)c2cc(Br)ccc2n1` [17c] were, in that order, 2.2 µM (≈ 0.863 µg/mL) and 2.6 µM (≈ 1.02 µg/mL).
For the compound `Cc1nc(NCCc2ccc3ccccc3c2)c2cc(I)ccc2n1` [17d], the “MIC QcrBT313I” value in assay [3] is 1.2 µM (≈ 0.527 µg/mL). The “MIC MmpL3 (F255L, V646M, F644I)” value in assay [4] is given as 1.4 µM (≈ 0.615 µg/mL).
The like results for `Cc1nc(NCCc2ccccc2)c2cc(I)ccc2n1` [9d] were, in that order, 0.67 µM (≈ 0.261 µg/mL) and 0.89 µM (≈ 0.346 µg/mL).
The like results for `CCc1ccc(CCNc2nc(C)nc3ccc(I)cc23)cc1` [16d] were, in that order, 1.8 µM (≈ 0.751 µg/mL) and 2.3 µM (≈ 0.96 µg/mL).
Taken in the same sequence, the figures for `Cc1nc(NCCCc2ccccc2)c2ccccc2n1` [18a] were 1.0 µM (≈ 0.277 µg/mL) and 1.2 µM (≈ 0.333 µg/mL).
As to `CCc1ccc(CCNc2nc(C)nc3ccc(Br)cc23)cc1` [16c], in assay [3], the “MIC QcrBT313I” value was 2.4 µM (≈ 0.889 µg/mL). For the same compound, the “MIC MmpL3 (F255L, V646M, F644I)” value in assay [4] is 3.4 µM (≈ 1.26 µg/mL).
The like results for `Cc1nc(NCCc2ccc(OC(F)(F)F)cc2)c2cc(Br)ccc2n1` [13c] were, in that order, 4.0 µM (≈ 1.7 µg/mL) and 5.4 µM (≈ 2.3 µg/mL).
Taken in the same sequence, the figures for `Cc1nc(NCCCc2ccccc2)c2cc(I)ccc2n1` [18d] were 0.48 µM (≈ 0.194 µg/mL) and 0.64 µM (≈ 0.258 µg/mL).
Taken in the same sequence, the figures for `COc1ccc(CCNc2nc(C)nc3ccc(I)cc23)cc1` [10d] were 1.2 µM (≈ 0.503 µg/mL) and 1.5 µM (≈ 0.629 µg/mL).
For the compound `CCc1nc(NCCCc2ccccc2)c2cc(C)sc2n1` [3 (CWHM-1023)], the pIC50 in assay [5] was less than 6.30.
Consider `c1ccc(CCCNc2ncnc3ccccc23)cc1` [18e], for which, in assay [3], the “MIC QcrBT313I” value stood at 29.0 µM (≈ 7.64 µg/mL). In addition, the “MIC MmpL3 (F255L, V646M, F644I)” value in assay [4] was 39.0 µM (≈ 10.3 µg/mL).
The like results for `Cc1ccc(CCNc2nc(C)nc3ccc(I)cc23)cc1` [15d] were, in that order, 0.70 µM (≈ 0.282 µg/mL) and 0.89 µM (≈ 0.359 µg/mL).
For the compound `FC(F)(F)c1ccc(CCNc2cc(-c3ccccn3)nc3ncnn23)cc1` [1 (TAP)], the “MIC QcrB T313I” value in assay [1] was more than 20 µM. The “MIC QcrB M342T” value in assay [2] is 10 µM (≈ 3.84 µg/mL).
In the case of `Cc1nc(NCCc2ccc(Cl)cc2)c2cc(I)ccc2n1` [11d], the “MIC QcrBT313I” value in assay [3] was found to be 0.80 µM (≈ 0.339 µg/mL). In addition, in assay [4], the “MIC MmpL3 (F255L, V646M, F644I)” value is reported as 1.0 µM (≈ 0.424 µg/mL).
Consider `CO[C@H]1/C=C/O[C@@]2(C)Oc3c(C)c(O)c4c(O)c(c(/C=N/N5CCN(C)CC5)c(O)c4c3C2=O)NC(=O)/C(C)=C\C=C\[C@H](C)[C@H](O)[C@@H](C)[C@@H](O)[C@@H](C)[C@H](OC(C)=O)[C@@H]1C` [20 (RIF), rifampicin, reference compound], for which the “MIC QcrBT313I” value in assay [3] came out at 0.010 µM (≈ 0.00823 µg/mL). Moreover, the “MIC MmpL3 (F255L, V646M, F644I)” value in assay [4] was 0.030 µM (≈ 0.0247 µg/mL).
